Values quoted from earlier work as cited in patent EP3072528B1, “COMPOSITION COMPRISING VEMURAFENIB AND CATIONIC COPOLYMER BASED ON METHACRYLATES” (ratiopharm GmbH, priority 2015, dated 2016).

Details: reported; BCS IV compound

Question: With `CCCS(=O)(=O)Nc1ccc(F)c(C(=O)c2c[nH]c3ncc(-c4ccc(Cl)cc4)cc23)c1F` [Vemurafenib base, N-(3-{[5-(4-chlorophenyl)-1H-pyrrolo[2,3-b]pyridin-3-yl]carbonyl}-2,4-difluorophenyl)propane-1-sulfonamide] as the molecule, how does the “solubility in aqueous and physiological solvents” value read?
Answer: The value was “practically insoluble”.
